Measurements reported in US7348425B2, “Inhibitors of HCV replication” (Bristol-Myers Squibb Company, priority 2004, dated 2008).
Like-named read-outs stand apart in the source and are kept apart here.

Tests used:
[1] = molecular target: T1, HCV NS5B RdRp genotype 1b (Hepatitis C virus genotype 1b, UniProt Q9WMX2); test: Standard HCV NS5B RdRp enzyme assay; format: biochemical; settings: standard method
T1 construct: The protein was expressed with an 18 amino acid C-terminal truncation to enhance the solubility; made in house; host or cells: E. coli BL21 (DE3), pET21a
T1 sequence (Q9WMX2 2420-2992): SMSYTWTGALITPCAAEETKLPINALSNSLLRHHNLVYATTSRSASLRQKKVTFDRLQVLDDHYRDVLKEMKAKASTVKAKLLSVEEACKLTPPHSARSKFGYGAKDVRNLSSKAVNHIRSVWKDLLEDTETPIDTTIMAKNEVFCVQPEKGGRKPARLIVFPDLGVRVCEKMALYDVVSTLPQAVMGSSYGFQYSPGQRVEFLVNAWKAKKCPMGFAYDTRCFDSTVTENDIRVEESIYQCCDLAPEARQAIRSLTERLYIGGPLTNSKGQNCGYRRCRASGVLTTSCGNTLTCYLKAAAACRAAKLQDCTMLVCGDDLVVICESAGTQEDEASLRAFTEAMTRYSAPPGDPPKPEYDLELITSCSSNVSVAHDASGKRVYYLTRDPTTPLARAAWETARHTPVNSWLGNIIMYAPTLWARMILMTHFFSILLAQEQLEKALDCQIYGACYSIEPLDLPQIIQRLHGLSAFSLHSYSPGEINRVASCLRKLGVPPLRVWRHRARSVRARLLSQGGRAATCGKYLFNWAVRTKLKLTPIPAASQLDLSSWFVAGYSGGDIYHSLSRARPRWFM
Protocol: HCVNS5B RdRp cloning, expression, and purification. The cDNA encoding the NS5B protein of HCV, genotype 1b, was cloned into the pET21a expression vector. The protein was expressed with an 18 amino acid C-terminal truncation to enhance the solubility. The E. coli competent cell line BL21 (DE3) was used for expression of the protein. Cultures were grown at 37° C. for ˜4 hours until the cultures reached an optical density of 2.0 at 600 nm. The cultures were cooled to 20° C. and induced with 1 mM IPTG. Fresh ampicillin was added to a final concentration of 50 μg/ml and the cells were grown overnight at 20° C.
Cell pellets (3 L) were lysed for purification to yield 15-24 mgs of purified NS5B. The lysis buffer consisted of 20 mM Tris-HCl, pH 7.4, 500 mM NaCl, 0.5% triton X-100, 1 mM DTT, 1 mM EDTA, 20% glycerol, 0.5 mg/ml lysozyme, 10 mM MgCl2, 15 ug/ml deoxyribonuclease I, and Complete TM protease inhibitor tablets (Roche). After addition of the lysis buffer, frozen cell pellets were resuspended using a tissue homogenizer. To reduce the viscosity of the sample, aliquots of the lysate were sonicated on ice using a microtip attached to a Branson sonicator. The sonicated lysate was centrifuged at 100,000×g for 1 hr at 4° C. and filtered through a 0.2 μm filter unit (Corning).
The protein was purified using three sequential chromatography steps: Heparin sepharose CL-6B, polyU sepharose 4B, and Hitrap SP sepharose (Pharmacia). The chromatography buffers were identical to the lysis buffer but contained no lysozyme, deoxyribonuclease I, MgCl2 or protease inhibitor and the NaCl concentration of the buffer was adjusted according to the requirements for charging the protein onto the column. Each column was eluted with a NaCl gradient which varied in length from 5-50 column volumes depending on the column type. After the final chromatography step, the resulting purity of the enzyme is >90% based on SDS-PAGE analysis. The enzyme was aliquoted and stored at −80° C.
Standard HCV NS5B RdRp enzyme assay. HCV RdRp genotype Ib assays were run in a final volume of 60 μl in 96 well plates (Costar 3912). The assay buffer is composed of 20 mM Hepes, pH 7.5, 2.5 mM KCl, 2.5 mM MgCl2, 1 mM DTT, 1.6 U RNAse inhibitor (Promega N2515), 0.1 mg/ml BSA (Promega R3961), and 2% glycerol. All compounds were serially diluted (3-fold) in DMSO and diluted further in water such that the final concentration of DMSO in the assay was 2%. HCV RdRp genotype 1b enzyme was used at a final concentration of 28 nM. A polyA template was used at 6 nM, and a biotinylated oligo-dT12 primer was used at 180 nM final concentration. Template was obtained commercially (Amersham 27-4110). Biotinylated primer was prepared by Sigma Genosys. ^3H-UTP was used at 0.6 μCi (0.29 μM total UTP). Reactions were initiated by the addition of enzyme, incubated at 30° C. for 60 min, and stopped by adding 25 μl of 50 mM EDTA containing SPA beads (4 μg/μl, Amersham RPNQ 0007). Plates were read on a Packard Top Count NXT after >1 hr incubation at room temperature.
The IC50 values for compounds were determined using seven different [I]. IC50 values were calculated from the inhibition using the formula y=A+((B−A)/(1+((C/x)^D))). FRET Assay Preparation. To perform the HCV FRET screening assay, 96-well cell culture plates were used. The FRET peptide (Anaspec, Inc.) (Taliani et al., Anal. Biochem. 240:60-67 (1996), hereby incorporated by reference in its entirety) contains a fluorescence donor, EDANS, near one end of the peptide and an acceptor, DABCYL, near the other end. The fluorescence of the peptide is quenched by […] resonance energy transfer (RET) between the donor and the acceptor, but as the NS3 protease cleaves the peptide the products are released from RET quenching and the fluorescence of the donor becomes apparent. […]

HCV replicon = HCV replicon luciferase assay; format: cell-based, Hepatitis C virus; settings: luciferase method, read-out: EC50
Protocol: To prepare plates, HCV replicon cells, with or without a Renilla luciferase reporter gene, were trypsinized and placed into each well of a 96-well plate with titrated test compounds added in columns 3 through 12; columns 1 and 2 contained a control compound (HCV protease inhibitor), and the bottom row contained cells without compound. The plates were then placed in a CO2 incubator at 37 degrees C.
Assays. Subsequent to addition of the test compounds described above (FRET Assay Preparation), at various times the plate was removed and Alamar blue solution (Trek Diagnostics, #00-100) was added per well as a measure of cellular toxicity. After reading in a Cytoflour 4000 instrument (PE Biosystems), plates were rinsed with PBS and then used for FRET assay by the addition of 30 ul of the FRET peptide assay reagent described above (FRET Assay Preparation) per well. The plate was then placed into the Cytoflour 4000 instrument which had been set to 340 excite/490 emission, automatic mode for 20 cycles and the plate read in a kinetic mode. Typically, the signal to noise using an endpoint analysis after the reads was at least three-fold. Alternatively, after Alamar blue reading, plates were rinsed with PBS, 50 ul of DMEM (high glucose) without phenol red was added and plates were then used for luciferase assay using the Promega Dual-Glo Luciferase Assay System.
Compound analysis was determined by quantification of the relative HCV replicon inhibition and the relative cytotoxicity values. To calculate cytoxicity values, the average Alamar Blue fluorescence signals from the control wells were set as 100% non-toxic. The individual signals in each of the compound test wells were then divided by the average control signal and multiplied by 100% to determine […]. To calculate the HCV replicon inhibition values, an average background value was obtained from the two wells containing the highest amount of HCV protease inhibitor at the end of the assay period. These numbers were similar to those obtained from naïve Huh-7 cells.
The background numbers were then subtracted from the average signal obtained from the control wells and this number was used as 100% activity. The individual signals in each of the compound test wells were then divided by the averaged control values after background subtraction and multiplied by 100% to determine percent activity. EC50 values for a protease inhibitor titration were calculated as the concentration which caused a 50% reduction in FRET or luciferase activity. The two numbers generated for the compound plate, percent cytoxicity and percent activity were used to determine compounds of interest for further analysis.

SMILES	IC50 [1]	EC50 (HCV replicon; Hepatitis C virus)	EC50 (HCV replicon)
O=C(O)c1ccc2c(C3CCCCC3)c3n(c2c1)Cc1ccccc1-3 [Example 7]	0.1 to 1 µM	> 10 µM	–
O=C(O)/C=C/c1ccc(-c2nc(C3(NC(=O)c4ccc5c(C6CCCCC6)c6n(c5c4)CC=Cc4ccccc4-6)CCCC3)no2)cc1 [Example 25]	> 1 µM	0.1 to 1 µM	–
O=C(O)C1=Cc2ccccc2-c2c(C3CCCCC3)c3ccc(C(=O)O)cc3n2C1	0.1 to 1 µM	> 10 µM	–
O=C(O)c1ccc2c(C3CCCCC3)c3n(c2c1)CC=Cc1cc(OCc2ccccc2)ccc1-3	> 1 µM	0.1 to 1 µM	–
O=C(O)c1ccc2c(C3CCCCC3)c3n(c2c1)CCCCNc1ccccc1-3	> 1 µM	0.1 to 1 µM	–
O=C(O)/C=C/c1ccc(NC(=O)C2(NC(=O)c3ccc4c(C5CCCCC5)c5n(c4c3)CCCc3ccccc3-5)CCNCC2)cc1 [Example 29, 2-propenoic acid, 3-[4-[[[4-[[(13-cyclohexyl-6,7-dihydro-5H-indolo[2,1-a][2]benzazepin-10-yl)carbonyl]amino]-4-piperidinyl]carbonyl]amino]phenyl]-, (2E)-]	0.1 to 1 µM	< 0.1 µM	–
COC(=O)/C=C/c1ccc(NC(=O)C2(NC(=O)c3ccc4c(C5CCCCC5)c5n(c4c3)CCOc3ccccc3-5)CCCC2)cc1	> 1 µM	–	–
CN1CCN(C(=O)C2Cc3ccccc3-c3c(C4CCCCC4)c4ccc(C(=O)NS(=O)(=O)N(C)C)cc4n3C2)CC1 (stereo not shown)	0.1 to 1 µM	0.1 to 1 µM	–
COC(=O)c1ccc2c(C3CCCCC3)c3n(c2c1)CCCc1ccccc1-3 [Example 2, Methyl 13-cyclohexyl-6,7-dihydro-5H-indolo[2,1-a][2]benzazepine-10-carboxylate]	> 1 µM	> 10 µM	–
CN(C)S(=O)(=O)NC(=O)c1ccc2c(C3CCCCC3)c3n(c2c1)CC(C(=O)N1CCC(N2CCCC2)CC1)Cc1ccccc1-3 (stereo not shown)	0.1 to 1 µM	< 0.1 µM	–
COC(=O)/C=C/c1ccc(NC(=O)C2(NC(=O)c3ccc4c(C5CCCCC5)c5n(c4c3)CCOc3cccnc3-5)CCCC2)cc1	> 1 µM	0.1 to 1 µM	–
O=C(O)c1ccc2c(C3CCCCC3)c3n(c2c1)CCCc1cc(O)ccc1-3	0.1 to 1 µM	0.1 to 1 µM	–
O=C(O)c1ccc2c(C3CCCCC3)c3n(c2c1)CC(C(=O)N1CCOCC1)Cc1ccccc1-3 (stereo not shown) [drawing 114]	> 1 µM	–	1 to 10 µM
O=C(O)c1ccc2c(C3CCCCC3)c3n(c2c1)CC(C(=O)N1CCCCC1)Cc1ccccc1-3 (stereo not shown) [drawing 116]	0.1 to 1 µM	–	0.1 to 1 µM
COC(=O)/C=C/c1ccc(NC(=O)C2(NC(=O)c3ccc4c(C5CCCCC5)c5n(c4c3)CC(=O)Nc3cccnc3-5)CCCC2)cc1 [drawing 98]	> 1 µM	< 0.1 µM	–
O=C(O)c1ccc(-c2nc(C3(NC(=O)c4ccc5c(C6CCCCC6)c6n(c5c4)CC=Cc4ccccc4-6)CCCC3)no2)cc1 [Example 24]	> 1 µM	0.1 to 1 µM	–
